From publication PMC3448056, “2-Benzamido-N-(1H-benzo[d]imidazol-2-yl)thiazole-4-carboxamide derivatives as potent inhibitors of CK1δ/ε” (Amino Acids, 2012)

Columns and labels:
Assay in all cases: KINOMEscan selectivity profiling
Type in all cases: binding
CLK4 = molecular target: T1, CLK4 (Homo sapiens, UniProt Q9HAZ1); details: remaining relative to controls, read-out: %Ctrl @ 10 μM (CLK4)
T1 construct: purchased Ambit Biosciences Cooperation, San Diego, USA (KINOMEscan)
Protocol: (§1) KINOMEscan™ was performed to determine binding constants of coumpound 5 to 442 eukaryotic kinases by Ambit Biosciences Cooperation, San Diego, USA.

CSNK1A1 = molecular target: T2, CSNK1A1 (Homo sapiens, UniProt P48729); details: remaining relative to controls, read-out: %Ctrl @ 10 μM (CSNK1A1)
T2 construct: purchased Ambit Biosciences Cooperation, San Diego, USA (KINOMEscan)
Protocol: as §1

CSNK1D = molecular target: T3, CSNK1D (Homo sapiens, UniProt P48730); details: remaining relative to controls, read-out: %Ctrl @ 10 μM (CSNK1D)
T3 construct: purchased Ambit Biosciences Cooperation, San Diego, USA (KINOMEscan)
Protocol: as §1

CLK3 = molecular target: T4, CLK3 (Homo sapiens, UniProt P49761); details: remaining relative to controls, read-out: %Ctrl @ 10 μM (CLK3)
T4 construct: purchased Ambit Biosciences Cooperation, San Diego, USA (KINOMEscan)
Protocol: as §1

TAOK1 = molecular target: T5, TAOK1 (Homo sapiens, UniProt Q7L7X3); details: remaining relative to controls, read-out: %Ctrl @ 10 μM (TAOK1)
T5 construct: purchased Ambit Biosciences Cooperation, San Diego, USA (KINOMEscan service)
Protocol: as §1

DYRK1A = molecular target: T6, DYRK1A (Homo sapiens, UniProt Q13627); details: remaining relative to controls, read-out: %Ctrl @ 10 μM (DYRK1A)
T6 construct: purchased Ambit Biosciences Cooperation, San Diego, USA (KINOMEscan)
Protocol: as §1

CSNK1A1L = molecular target: T7, CSNK1A1L (Homo sapiens, UniProt Q8N752); details: remaining relative to controls, read-out: %Ctrl @ 10 μM (CSNK1A1L)
T7 construct: purchased Ambit Biosciences Cooperation, San Diego, USA (KINOMEscan)
Protocol: as §1

DYRK1B = molecular target: T8, DYRK1B (Homo sapiens, UniProt Q9Y463); details: remaining relative to controls, read-out: %Ctrl @ 10 μM (DYRK1B)
T8 construct: purchased Ambit Biosciences Cooperation, San Diego, USA (KINOMEscan)
Protocol: as §1

CSNK1G2 = molecular target: T9, CSNK1G2 (Homo sapiens, UniProt P78368); details: remaining relative to controls, read-out: %Ctrl @ 10 μM (CSNK1G2)
T9 construct: purchased Ambit Biosciences Cooperation, San Diego, USA (KINOMEscan)
Protocol: as §1

CLK2 = molecular target: T10, CLK2 (Homo sapiens, UniProt P49760); details: remaining relative to controls, read-out: %Ctrl @ 10 μM (CLK2)
T10 construct: purchased Ambit Biosciences Cooperation, San Diego, USA (KINOMEscan)
Protocol: as §1

TAOK3 = molecular target: T11, TAOK3 (Homo sapiens, UniProt Q9H2K8); details: remaining relative to controls, read-out: %Ctrl @ 10 μM (TAOK3)
T11 construct: purchased Ambit Biosciences Cooperation, San Diego, USA (KINOMEscan service)
Protocol: as §1

CLK1 = molecular target: T12, CLK1 (Homo sapiens, UniProt P49759); details: remaining relative to controls, read-out: %Ctrl @ 10 μM (CLK1)
T12 construct: purchased Ambit Biosciences Cooperation, San Diego, USA (KINOMEscan)
Protocol: as §1

IRAK3 = molecular target: T13, IRAK3 (Homo sapiens, UniProt Q9Y616); details: remaining relative to controls, read-out: %Ctrl @ 10 μM (IRAK3)
T13 construct: purchased Ambit Biosciences Cooperation, San Diego, USA (KINOMEscan)
Protocol: as §1

FLT3(D835Y) = molecular target: T14, FLT3(D835Y) (Homo sapiens, UniProt P36888, D835Y); details: remaining relative to controls, read-out: %Ctrl @ 10 μM (FLT3(D835Y))
T14 construct: purchased Ambit Biosciences Cooperation, San Diego, USA (KINOMEscan)
Protocol: as §1

SLK = molecular target: T15, SLK (Homo sapiens, UniProt Q9H2G2); details: remaining relative to controls, read-out: %Ctrl @ 10 μM (SLK)
T15 construct: purchased Ambit Biosciences Cooperation, San Diego, USA (KINOMEscan)
Protocol: as §1

FLT3(D835H) = molecular target: T16, FLT3(D835H) (Homo sapiens, UniProt P36888, D835H); details: remaining relative to controls, read-out: %Ctrl @ 10 μM (FLT3(D835H))
T16 construct: purchased Ambit Biosciences Cooperation, San Diego, USA (KINOMEscan)
Protocol: as §1

PIP5K2C = molecular target: T17, PIP5K2C (Homo sapiens, UniProt Q8TBX8); details: remaining relative to controls, read-out: %Ctrl @ 10 μM (PIP5K2C)
T17 construct: purchased Ambit Biosciences Cooperation, San Diego, USA (KINOMEscan)
Protocol: as §1

CSNK1G3 = molecular target: T18, CSNK1G3 (Homo sapiens, UniProt Q9Y6M4); details: remaining relative to controls, read-out: %Ctrl @ 10 μM (CSNK1G3)
T18 construct: purchased Ambit Biosciences Cooperation, San Diego, USA (KINOMEscan)
Protocol: as §1

T11 sequence (Q9H2K8 whole entry): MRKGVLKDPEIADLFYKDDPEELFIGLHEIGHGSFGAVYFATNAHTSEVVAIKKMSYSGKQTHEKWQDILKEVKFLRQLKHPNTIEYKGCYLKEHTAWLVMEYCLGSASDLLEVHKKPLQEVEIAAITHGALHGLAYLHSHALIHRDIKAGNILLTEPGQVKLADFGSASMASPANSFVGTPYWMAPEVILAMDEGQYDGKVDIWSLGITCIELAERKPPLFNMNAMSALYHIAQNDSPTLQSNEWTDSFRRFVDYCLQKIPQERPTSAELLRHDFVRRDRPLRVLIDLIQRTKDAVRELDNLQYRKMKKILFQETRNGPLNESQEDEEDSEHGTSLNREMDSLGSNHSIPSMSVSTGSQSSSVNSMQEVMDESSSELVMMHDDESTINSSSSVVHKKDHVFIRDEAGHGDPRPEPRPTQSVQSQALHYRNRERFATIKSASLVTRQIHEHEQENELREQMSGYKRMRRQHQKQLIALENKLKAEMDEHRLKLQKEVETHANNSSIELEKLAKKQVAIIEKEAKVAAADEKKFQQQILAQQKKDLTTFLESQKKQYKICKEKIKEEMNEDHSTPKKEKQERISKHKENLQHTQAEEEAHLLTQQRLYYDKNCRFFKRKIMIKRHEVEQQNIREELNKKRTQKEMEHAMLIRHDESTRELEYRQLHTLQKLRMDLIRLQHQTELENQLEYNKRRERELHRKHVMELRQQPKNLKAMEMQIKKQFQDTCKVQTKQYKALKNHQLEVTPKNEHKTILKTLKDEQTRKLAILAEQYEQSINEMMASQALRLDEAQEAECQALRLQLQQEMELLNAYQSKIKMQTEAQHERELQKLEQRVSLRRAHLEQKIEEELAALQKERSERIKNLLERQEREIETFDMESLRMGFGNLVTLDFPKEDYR
T13 sequence (Q9Y616 whole entry): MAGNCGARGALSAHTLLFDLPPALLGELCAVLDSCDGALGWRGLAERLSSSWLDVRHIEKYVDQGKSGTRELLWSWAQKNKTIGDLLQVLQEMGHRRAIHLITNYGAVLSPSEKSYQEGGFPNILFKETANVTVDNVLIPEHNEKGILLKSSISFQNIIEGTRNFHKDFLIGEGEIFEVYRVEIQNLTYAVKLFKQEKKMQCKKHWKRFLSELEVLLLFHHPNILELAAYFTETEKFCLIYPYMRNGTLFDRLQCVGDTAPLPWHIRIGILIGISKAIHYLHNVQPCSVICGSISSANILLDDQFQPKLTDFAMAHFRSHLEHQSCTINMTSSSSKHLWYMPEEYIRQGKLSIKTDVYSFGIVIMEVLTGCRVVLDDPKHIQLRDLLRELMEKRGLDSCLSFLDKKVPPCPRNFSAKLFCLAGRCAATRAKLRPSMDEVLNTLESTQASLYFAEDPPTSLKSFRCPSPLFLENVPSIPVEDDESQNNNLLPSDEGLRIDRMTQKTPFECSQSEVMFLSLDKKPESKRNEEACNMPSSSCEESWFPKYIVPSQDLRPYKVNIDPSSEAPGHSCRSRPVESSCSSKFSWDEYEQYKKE
T8 sequence (Q9Y463 whole entry): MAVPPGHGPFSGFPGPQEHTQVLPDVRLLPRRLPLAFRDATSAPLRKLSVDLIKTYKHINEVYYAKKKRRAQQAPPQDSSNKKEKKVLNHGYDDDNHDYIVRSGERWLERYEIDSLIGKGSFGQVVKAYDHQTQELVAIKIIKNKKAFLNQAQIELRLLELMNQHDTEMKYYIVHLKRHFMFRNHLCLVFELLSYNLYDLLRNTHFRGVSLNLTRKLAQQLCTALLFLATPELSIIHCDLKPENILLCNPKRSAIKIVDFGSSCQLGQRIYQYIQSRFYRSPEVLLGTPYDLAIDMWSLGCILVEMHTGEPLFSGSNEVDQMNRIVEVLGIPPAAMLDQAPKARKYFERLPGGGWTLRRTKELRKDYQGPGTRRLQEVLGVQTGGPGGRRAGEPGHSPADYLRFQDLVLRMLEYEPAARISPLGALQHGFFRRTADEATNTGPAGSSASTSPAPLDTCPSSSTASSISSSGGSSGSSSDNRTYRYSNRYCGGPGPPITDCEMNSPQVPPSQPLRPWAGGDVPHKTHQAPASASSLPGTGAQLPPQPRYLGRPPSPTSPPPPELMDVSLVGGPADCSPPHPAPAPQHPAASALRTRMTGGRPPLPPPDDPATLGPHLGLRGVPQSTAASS
T18 sequence (Q9Y6M4 whole entry): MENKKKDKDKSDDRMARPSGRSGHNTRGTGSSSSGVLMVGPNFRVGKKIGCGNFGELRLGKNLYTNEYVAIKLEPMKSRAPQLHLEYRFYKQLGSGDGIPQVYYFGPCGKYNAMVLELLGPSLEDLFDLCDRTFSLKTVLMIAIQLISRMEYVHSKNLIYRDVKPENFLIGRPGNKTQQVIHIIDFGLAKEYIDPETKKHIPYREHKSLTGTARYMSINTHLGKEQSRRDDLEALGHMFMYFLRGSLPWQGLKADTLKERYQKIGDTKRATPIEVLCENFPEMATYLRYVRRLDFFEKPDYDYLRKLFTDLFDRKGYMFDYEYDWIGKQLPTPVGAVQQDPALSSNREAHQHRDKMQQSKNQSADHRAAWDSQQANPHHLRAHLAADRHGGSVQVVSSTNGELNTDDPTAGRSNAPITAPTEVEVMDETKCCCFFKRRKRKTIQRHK
T5 sequence (Q7L7X3 whole entry): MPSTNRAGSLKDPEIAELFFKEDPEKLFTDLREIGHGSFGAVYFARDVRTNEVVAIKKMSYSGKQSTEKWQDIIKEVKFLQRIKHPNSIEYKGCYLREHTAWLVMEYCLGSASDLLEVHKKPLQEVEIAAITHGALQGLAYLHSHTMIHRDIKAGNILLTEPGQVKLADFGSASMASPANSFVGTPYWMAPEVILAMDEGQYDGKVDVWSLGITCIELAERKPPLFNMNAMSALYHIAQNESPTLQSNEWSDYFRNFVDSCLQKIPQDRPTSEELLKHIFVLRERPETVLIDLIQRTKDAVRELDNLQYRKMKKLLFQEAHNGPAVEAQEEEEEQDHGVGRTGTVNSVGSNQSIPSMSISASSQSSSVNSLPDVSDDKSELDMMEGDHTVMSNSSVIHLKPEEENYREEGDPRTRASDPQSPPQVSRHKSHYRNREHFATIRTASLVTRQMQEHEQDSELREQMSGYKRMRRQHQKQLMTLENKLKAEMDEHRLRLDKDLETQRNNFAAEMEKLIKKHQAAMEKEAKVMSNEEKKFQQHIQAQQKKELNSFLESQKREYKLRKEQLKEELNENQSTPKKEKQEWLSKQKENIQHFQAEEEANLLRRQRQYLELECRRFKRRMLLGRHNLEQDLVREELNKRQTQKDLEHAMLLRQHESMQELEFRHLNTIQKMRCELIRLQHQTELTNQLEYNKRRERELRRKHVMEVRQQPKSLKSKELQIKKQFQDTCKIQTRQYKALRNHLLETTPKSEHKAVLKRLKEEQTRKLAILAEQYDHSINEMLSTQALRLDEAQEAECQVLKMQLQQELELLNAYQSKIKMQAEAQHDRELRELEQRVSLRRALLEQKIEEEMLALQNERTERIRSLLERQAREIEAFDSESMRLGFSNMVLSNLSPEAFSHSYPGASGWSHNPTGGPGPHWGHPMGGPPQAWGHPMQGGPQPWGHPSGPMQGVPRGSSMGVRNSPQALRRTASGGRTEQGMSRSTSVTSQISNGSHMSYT
T12 sequence (P49759 whole entry): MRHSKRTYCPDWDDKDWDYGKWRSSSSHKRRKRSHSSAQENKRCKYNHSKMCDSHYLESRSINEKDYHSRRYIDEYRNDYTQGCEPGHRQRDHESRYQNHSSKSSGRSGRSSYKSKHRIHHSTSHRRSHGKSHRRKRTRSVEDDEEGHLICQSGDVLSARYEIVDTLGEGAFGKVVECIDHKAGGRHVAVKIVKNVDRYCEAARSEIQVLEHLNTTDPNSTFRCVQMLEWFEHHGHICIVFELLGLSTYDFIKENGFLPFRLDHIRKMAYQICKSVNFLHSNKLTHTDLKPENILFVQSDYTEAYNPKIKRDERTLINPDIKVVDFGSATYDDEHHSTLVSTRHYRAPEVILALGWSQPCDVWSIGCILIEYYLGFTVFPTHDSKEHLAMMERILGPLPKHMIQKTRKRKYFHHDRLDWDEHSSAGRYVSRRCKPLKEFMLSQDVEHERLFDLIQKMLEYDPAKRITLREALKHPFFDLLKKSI
T10 sequence (P49760 whole entry): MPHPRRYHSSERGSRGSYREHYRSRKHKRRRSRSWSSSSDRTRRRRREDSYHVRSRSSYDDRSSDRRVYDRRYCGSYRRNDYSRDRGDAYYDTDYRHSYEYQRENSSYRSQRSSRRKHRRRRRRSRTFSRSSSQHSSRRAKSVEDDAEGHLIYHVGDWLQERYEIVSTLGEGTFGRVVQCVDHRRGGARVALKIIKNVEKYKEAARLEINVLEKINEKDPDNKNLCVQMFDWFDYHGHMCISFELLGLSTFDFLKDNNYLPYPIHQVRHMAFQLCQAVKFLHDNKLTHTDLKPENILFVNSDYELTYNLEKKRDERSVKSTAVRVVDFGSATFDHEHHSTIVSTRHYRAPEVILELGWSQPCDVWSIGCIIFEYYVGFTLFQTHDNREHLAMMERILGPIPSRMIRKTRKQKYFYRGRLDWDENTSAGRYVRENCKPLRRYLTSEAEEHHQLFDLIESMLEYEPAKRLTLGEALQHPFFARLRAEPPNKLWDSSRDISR
T2 sequence (P48729 whole entry): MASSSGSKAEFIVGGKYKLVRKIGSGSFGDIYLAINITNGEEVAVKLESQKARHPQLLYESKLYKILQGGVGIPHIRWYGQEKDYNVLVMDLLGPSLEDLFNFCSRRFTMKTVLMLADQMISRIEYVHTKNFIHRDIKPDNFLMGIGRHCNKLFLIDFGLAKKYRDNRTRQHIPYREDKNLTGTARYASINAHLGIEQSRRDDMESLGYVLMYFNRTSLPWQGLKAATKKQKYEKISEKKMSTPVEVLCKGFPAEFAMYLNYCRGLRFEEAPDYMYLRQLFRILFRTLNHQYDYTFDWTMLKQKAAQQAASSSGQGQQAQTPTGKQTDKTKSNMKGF

- remaining binding at 10 µM (CLK4): 7.2%
- remaining binding at 10 µM (CSNK1A1): 3%
- remaining binding at 10 µM (CSNK1D): 2%
- remaining binding at 10 µM (CLK3): 20%
- remaining binding at 10 µM (TAOK1): 24%
- remaining binding at 10 µM (DYRK1A): 4.1%
- remaining binding at 10 µM (CSNK1A1L): 1%
- remaining binding at 10 µM (DYRK1B): 6.6%
- remaining binding at 10 µM (CSNK1G2): 9.9%
- remaining binding at 10 µM (CLK2): 10%
- remaining binding at 10 µM (TAOK3): 20%
- remaining binding at 10 µM (CLK1): 2.6%
- remaining binding at 10 µM (IRAK3): 27%
- remaining binding at 10 µM (FLT3(D835Y)): 10%
- remaining binding at 10 µM (SLK): 12%
- remaining binding at 10 µM (FLT3(D835H)): 25%
- remaining binding at 10 µM (PIP5K2C): 9.6%
- remaining binding at 10 µM (CSNK1G3): 31%
SMILES: O=C(Nc1nc2ccc(C(F)(F)F)cc2[nH]1)c1csc(NC(=O)c2ccccc2OC(F)(F)F)n1 [Compound 5, 2-(2-(Trifluoromethoxy)benzamido)-N-(6-(trifluoromethyl)-1H-benzo[d]imidazol-2-yl)thiazole-4-carboxamide]
